Assay results published in patent US8742068B2, “Treatment and prevention of inflammatory diseases and autoimmune diseases” (Universiteit Utrecht Holding B.V., priority 2007, dated 2014).
“Also recorded” adds a separate entry of the source.

What was measured:
[1] = system: proteoglycan induced arthritis; experiment: Proteoglycan induced arthritis (PGIA), intranasal pre-treatment; assay type: in vivo, Balb/c mice; settings: control pOva
Text: The proteoglycan induced arthritis model (PGIA) is a murine model of rheumatoid arthritis and is described to be a T-cell dependent and antibody mediated model. In the model arthritis is induced by two times injection of human proteoglycan (hPG) in a synthetic adjuvant dimethyldioctadecylammonium (DDA), see Hanyecz A. et al., Achievement of a synergistic adjuvant effect on arthritis induction by activation of innate immunity and forcing the immune response toward the Th1 phenotype. Arthritis Rheum. 2004 50(5):1665-76.
Because arthritis is induced by immunization with a synthetic adjuvant, instead of complete Freund's adjuvant (CFA), the role of interfering immune responses, induced by microbial Hsp's present in CFA, can be excluded. Due to cross reactive responses, between the human and the mouse (self) PG, a chronic and relapsing arthritis develops. After disease development, arthritis severity is scored by clinical assessment of thickness, redness and deformation of the joints on a scale of 1-4 per paw.
Ten female Balb/c mice, retired breeders obtained from Charles River, were randomly divided in two groups. To evaluate the effect of intra nasal treatment with Mycobacterial HSP70 (SEQ ID NO: 55) on PGIA 30 μg Hsp70 in 10 μl PBS was administered on day −7, −5 and −3 before disease induction. PGIA was induced by two times i.p. injection with 400 μg hPG and 2 mg DDA in 200 μl PBS. Subsequently developed arthritis scores were assessed by clinical evaluation as described in Example 7.
Fifteen female Balb/c mice, retired breeders obtained from Charles River, were randomly divided in three groups (five mice per group). To evaluate the effect of intranasal treatment with Hsp70-derived peptides “B1” (SEQ ID NO: 1) and a mixture of C1 (SEQ ID NO: 3) and mC1a (SEQ ID NO: 4) (designated herein as “C1mix”) on PGIA 100 μg peptide in 10 μl PBS was administered on day −7, −5 and −3 before disease induction. Ovalbumin peptide 323-339 (pOva) was used as a control peptide. PGIA was induced by two times i.p. injection with 400 μg hPG and 2 mg DDA in 200 μl PBS. Subsequently developed arthritis scores were assessed by clinical evaluation.
Twelve female Balb/c mice, retired breeders obtained from Charles River, were randomly divided in two groups (six mice per group). To evaluate the effect of intra nasal treatment with Hsp70 derived mC1 a on PGIA 100 μg peptide in 10 μl PBS was administered on day −14, −11, −7 and −4 before disease induction. Ovalbumin peptide (pOva) was used as a control peptide. PGIA was induced by two times i.p. injection with 400 μg hPG and 2 mg DDA in 200 μl PBS. Subsequently developed arthritis scores were assessed by clinical evaluation.
Eighteen female Balb/c mice, retired breeders obtained from Charles River, were randomly divided in three groups (six mice per group). To evaluate the effect of intranasal (i.n.) treatment with Hsp70 derived peptides C1 and its mouse homologue mC1a on PGIA 100 μg peptide in 10 μl PBS was administered on day −7, −5 and −3 before disease induction (see FIG. 28). Ovalbumin peptide (pOva) was used as a control peptide. PGIA was induced by two times i.p. injection with 300 μg hPG and 2 mg DDA in 200 μl PBS. Subsequently developed arthritis scores were assessed by clinical evaluation. • Group A: (pOva): Treated with 100 μg pOva in 10 μl PBS intranasally • Group B (C1): Treated with 100 μg C1 in 10 μl PBS intranasally • Group C (mC1a): Treated with 100 μg mC1a in 10 μl PBS intranasally

[2] = system: primed spleen and draining lymph node cells; experiment: Peptide pool immunization, in vitro re-stimulation with individual peptides (T-cell proliferation, cytokine production, cross reactivity); assay type: cell-based, Balb/c mice
Text: To define the epitopes more precisely, we divided the 13 peptides, based on the degree of sequence identity between bacterial and the homologous mouse Hsp70s, in three pools (pool A: non-conserved peptides, pool B: conserved peptides comprising at least about 80% amino acid identity to the mouse homologue, and pool C: highly conserved peptides comprising >86% amino acid identity to the mouse homologue, see below) and immunized 10-12 weeks old Balb/c mice twice with a 2 week interval (intraperitoneally and subcutaneously) with the peptide pools. 10 days after the second immunization primed spleen and draining lymph node cells were re-stimulated in vitro with all the 13 individual peptides after which we measured T-cell proliferation (tritium incorporation), IFNγ, IL10, IL4 and IL5 production (cytokine production).
Cross reactivity was determined with the corresponding mouse homologue peptides.

[3] = system: synovial fluid mononuclear cells (SFMC); experiment: Peptide-specific response of SFMC (intracellular staining and FACS); assay type: cell-based, human; settings: eight days culture with peptide, 6 hour restimulation
Procedure: Peptide-specific response of SFMC was measured by intracellular staining and FACS analysis. Therefore, cells were cultured in the presence of the peptide as described for PBMC. After 96 hours 100 μl of the medium was replaced by fresh culture medium and 40 IU/ml IL-2 was added. At day eight, cells were spun down, medium was aspirated and 200 μl new medium with fresh irradiated APC of the same donor was added (7.5*10^5 irradiated at 3500 rad) During 6 hours cells were cultured with or without the peptides and addition of the costimulatory mAbs CD28 and CD49 (0.5 μg/ml each) at 37° C. In the last 4 hours Golgistop (BD Biosciences) was added. Harvested cells were washed and surface stained as described previously […] with anti-CD3-Peridinin-chlorophyll-protein Complex (PerCP), anti-CD4-allophycocyanin (APC) and anti-CD69-fluorescein isothiocyanate (FITC) and subsequently fixed in Cytofix/cytoperm solution (BD Biosciences) followed by intracellular staining with phycoerythrin (PE) conjugated mAbs against either IL-10, IFNγ or TNFα. All antibodies were obtained from Becton Dickinson. Data are expressed as % positive cells of the CD3^+CD4^+ population.

[4] = system: PBMC isolated from the blood of healthy donors; experiment: Peptide-specific proliferation of human PBMC; assay type: cell-based; settings: peptides at 20 μg/ml for 96 hours; compared to A5 control peptide
Text: Peptide specific responses were studied in mononuclear cells obtained from the blood of healthy controls or the synovial fluid of a JIA and a RA patient. The patients were visiting the outpatient clinic of the departments of Rheumatology & Clinical Immunology and Pediatrics of the University Medical Center Utrecht (Utrecht, The Netherlands). The RA patient fulfilled diagnostic criteria of the American College of Rheumatology criteria for RA […]. Cells were isolated by ficoll (Pharmacia, Uppsala, Sweden) density gradient centrifugation of heparinized blood or synovial fluid and cultured in RPMI 1640 supplemented with 2 mmol/L glutamine, 100 U/ml penicillin and streptomycin (Gibco BRL, Gaithersburg, Md. USA) and 10% AB-positive heat-inactivated human serum (Sanquin Blood Bank, Utrecht, the Netherlands) in 96 wells round bottom plates (Nunc, Roskilde, Denmark) at 2*10^5 cells in 200 μl per well. Cultures were in triplicate stimulated with peptides at 20 μg/ml for 96 hours at 37° C. in 5% CO2 with 100% relative humidity. For determination of peptide-specific proliferation of PBMC, during the last 16 hours 1 μC1 (37 kBq) [^3H]-thymidine was added to each well and incorporation was measured. Data are expressed as stimulation index calculated as mean CPM of cells cultured with peptide divided by mean CPM of cells cultured without peptide.

adjuvant arthritis = settings: in vivo; cited from earlier work
arthritis = settings: cited from earlier work
[5] = Example 11: 100 μg intranasally on day −7, −5 and −3

In the case of “DEVVAVGAALQAGVL (listed as Mycobacterium tuberculosis) [B1, pool B (conserved)]”, the “disease severity (arthritis score)” value ([1]; Example 9: 100 μg intranasally on day −7, −5 and −3) is reported as “reduction of disease severity” and the “Cross-reactivity of bacterially primed T-cells with mouse homologue peptide” value (“Cross-reactivity … with mouse homologue peptide” for short) [2] is reported as “induced cross reactive T cell responses and yes”.
In the case of “KPFQSVIADTGISVS (listed as Mycobacterium tuberculosis) [A1, pool A (not conserved)]”, the “Cross-reactivity … with mouse homologue peptide” value [2] is reported as “no”.
For “VLRIINEPTAAAIAY (listed as Mus musculus) [mC1b, mouse hsp70 (hspa1a/hspa8) peptide, mouse homologue of C1]”, the “production of IL-10, IFNγ and TNFα in the CD3+CD4+ population” value [3] was “increased the production of IL-10, IFNγ and TNFα”, the “surface expression of CD69 in the CD3+CD4+ population” value [3] was “increased” and the “peptide-specific proliferation (stimulation index, [3H] thymidine incorporation)” value [4] was “increased proliferation of PBMC; also recorded: significantly increased the proliferation”.
For “VLRIVNEPTAAALAY (listed as Mycobacterium tuberculosis) [C1]”, the “disease activity (arthritis score)” value [1, 5] was “significant reduction of disease activity”, the “production of IL-10, IFNγ and TNFα in the CD3+CD4+ population” value [3] was “increased CD69 and cytokine expression” and the “surface expression of CD69 in the CD3+CD4+ population” value [3] was “increased CD69 and cytokine expression”. The “Cross-reactivity … with mouse homologue peptide” value [2] was “induced cross reactive T cell responses and yes”.
In the case of “VLRVINEPTAAALAY (listed as Mus musculus) [mC1a, mouse Grp75 (hspa9a) peptide 216-230, mouse homologue of C1]”, the “disease activity (arthritis score)” value ([1]; Example 10: 100 μg intranasally on day −14, −11, −7 and −4) is reported as “suppressed disease activity” and the “disease activity (arthritis score)” value [1, 5] is reported as “significant reduction of disease activity”.
For “amino acids 84-103: another peptide of Mycobacterial HSP70, amino acids 84-103 (Tanaka et al. 1999) (KKYTAPEISARILMKLKRDA; UniProt P9WMJ9 84-103, looked up, fragment)”, the “development of adjuvant arthritis” value (adjuvant arthritis) is listed as “does not suppress adjuvant arthritis development”.
For “peptide 111-125: synthetic 15-mer peptide of mycobacterial HSP70, amino acids 111-125 (Wendling et al. 2000) (ITDAVITTPAYFNDA; UniProt P9WMJ9 111-125, looked up, fragment)”, the arthritis (arthritis; nasal administration) is listed as “significant reduction of arthritis” and the arthritis development (arthritis; parenteral pre-immunization) is listed as “did not protect against arthritis development”.
In the case of “peptide 234-252: peptide 234-252 of Mycobacterial HSP70 (Tanaka et al. 1999) (LREAAEKAKIELSSSQSTS; UniProt P9WMJ9 234-252, looked up, fragment)”, the IL-10 production (adjuvant arthritis) is listed as “induces IL-10 production” and the “development of adjuvant arthritis” value (adjuvant arthritis) is listed as “suppresses the development of adjuvant arthritis”.
